Experimental data reported in patent US7732470B2, “Compositions and methods for the treatment of renal and cardiovascular disease” (Medical College of Georgia Research Institute, priority 2006, dated 2010).

System: spontaneously hypertensive rats (SHR)
Assay: Blood pressure in spontaneously hypertensive rats
Type: in vivo, rat
Procedure: As the 11-nonyloxy-undec-8(Z)-enoic acid derivatives lowered blood pressure in angiontensin hypertension, additional experiments were performed to determine if one of the derivatives could lower blood pressure in another hypertension model system. Male spontaneously hypertensive rats (SHRs) were maintained on a 12-hour light-dark cycle and allowed access to food and water ad libitum. These studies complied with the protocols for animal use outlined by the American Physiological Society and were approved by the institutional animal care and use committee.
Rats from 6 to 12 weeks of age were treated with 11-nonyloxy-undec-8(Z)-enoic acid derivative (TVR-I-276-21)( 2 mg/d i.p.) or vehicle for 8 days. Blood pressure was measured at Day 0, Day 4, and Day 8.
The blood pressure lowering effects of these analogs were analyzed in an established model of hepertension, the spontaneously hypertensive rats (SHR) using telemetry. […] As discussed in the previous example, additional derivatives with improved solubility and resistance to auto-oxidation and metabolism by sEH were designed using the pharmacophoric moiety of EET.
Amidation of the carboxylic group with aspartic acid produced another EET analog 32 (SA-III-161-32). […] Amidation of the carboxylic group with lysine amino acid produced another EET analog 34 (SA-III-172-26).

`CCCCCCCCCOCC/C=C\CCCCCCC(=O)OCCOCCOCCO` [TVR-I-276-21, (Z)-2-(2-(2-hydroxyethoxy)ethoxy)ethyl 11-(nonyloxy)undec-8-enoate] was tested, and the blood pressure (2 mg/d i.p. for 8 days, measured Day 0, 4, 8, versus vehicle) was “did not increase to the same extent as those that received the vehicle treatment”.
With `CCCCCCCCCOCC/C=C\CCCCCCC(=O)NC(CC(=O)O)C(=O)O` (centres unmarked) [SA-III-161-32, (Z)-2-(11-(nonyloxy)undec-8-enamido) succinic acid] the “blood pressure lowering effect” value (injected at 3 mg/day for 5 days) was “demonstrated a blood pressure lowering effect” and the “MAP Δ change at day 2 of injection” value (injected at 3 mg/day for 5 days, telemetry) was −8±1.3 mmHg.
With `CCCCCCCCCOCC/C=C\CCCCCCC(=O)O` [11,12-ether EET-8-ZE, 11-nonyloxy-undec-8(Z)-enoic acid, reference compound] the blood pressure lowering was “failed to lower blood pressure”.
In the case of `CCCCCCCCCOCC/C=C\CCCCCCC(=O)NC(CCCCN)C(=O)O` (centres unmarked) [SA-III-172-26, (Z)-6-amino-2-(11-(nonyloxy)undec-8-enamido)hexanoic acid], the “blood pressure lowering effect” value (injected at 2 mg/day) is reported as “minimal blood pressure lowering effect”.
